molecular target: T1, human vasopressin V2 receptor subtype (Homo sapiens, UniProt P30518); test: Vasopressin binding in Chinese Hamster Ovary cell membranes expressing human vasopressin V2 subtype receptors; settings: 100 nM, CHO cell membranes, [3H]arginine vasopressin, values without parentheses
T1 construct: host or cells: CHO cells (pZeoSV vector)
Protocol: Vasopressin Binding in Chinese Hamster Ovary Cell Membranes Expressing Human Vasopressin V2 Subtype Receptors
Chinese Hamster Ovary (CHO) cells stably transfected with the human V2 subtype receptors were obtained from M. Thibonnier, Case Western Reserve University School of Medicine, Cleveland, Ohio.
A. Passaging and Amplification of Cells:
The trypsin is removed by aspiration and the cells dislodged by tapping. Cell Culture medium (e.g. 30 mL for 1:30 split) is immediately added and mixed well to inactivate trypsin. 1 mL of detached cells is added to new culture flasks containing fresh Cell Culture medium (e.g. into 25 mL per T-150 flask), and mixed gently. The cells are incubated at 37° C. in 5% CO2. The medium is changed at 3 to 4 day interval (or as appropriate). […] All steps are done under sterile conditions. B. Membrane Preparation: The cells are washed twice gently with Hank's Balanced Salt solution (e.g. use 10 mL per T-150 flask). […] The contents are transferred to centrifuge tubes (50 mL) kept in ice bath. All subsequent steps are done at 4° C. The tubes are centrifuged at 300×g for 15 min (1380 rpm on SORVAL, Model RT6000D, using the rotor for 50 mL tubes). The supernatant is discarded and the cells suspended in homogenizing buffer (10 mM Tris-HCl containing 0.25 M sucrose and 1 mM EDTA, pH 7.4) ensuring that the volume of the buffer is about ten times the volume of the cell pellet. The cells are pooled into a centrifuge tube (50 mL) and homogenized with a Polytron at setting 6 for 10 sec. The homogenate is transferred into a Potter-Elvjehm homogenizer and homogenized with 3 strokes. The homogenate is centrifuged at 1500×g for 60 min at 4° C. (3100 rpm using SORVAL, model RT6000D, using the rotor for 50 mL tubes). The pellet is discarded. The supernatant is centrifuged at 100,000×g for 60 min. at 4° C. (Beckman L8-80M ultracentrifuge; spin at 37,500 rpm with rotor type 70 Ti for 50 mL tubes; 38,000 rpm with type 80Ti for 15 mL tubes; or 35,800 rpm with rotor type 45Ti). The supernantant is discarded and the pellet suspended in 3 to 4 mL of Tris buffer (50 mM TRIS-HCl, pH 7.4). The protein content is estimated by the Bradford or Lowry method. The volume of the membrane suspension is adjusted with the membrane buffer (50 mM Tris-HCl containing 0.1% BSA and 0.1 mM PMSF) to give 3.0 mg/mL (or as appropriate) of protein. The membranes are aliquoted and stored at −70° C. C. Radioligand Binding Assay: In wells of a 96-well format microtiter plate, is added 90, 110 or 130 μL (to make up a final volume of 200 μL) of assay buffer containing 50 mM of Tris-HCl (pH 7.4), […], 1 mg % aprotinin, 1 mg % leupeptin, 2 mg % 1,10-phenanthroline, 10 mg % trypsin inhibitor, and 0.1 mM PMSF. The inhibitors are added on the day of the experiment. The components are mixed at room temperature, and then kept in ice bath following adjustment of the pH to 7.4. […] For vasopressin and other peptide ligands 20 μL of 50% DMSO is added and the assay buffer volume is adjusted accordingly. To each well is added 50 μL of frozen membrane suspension thawed immediately prior to use and diluted in assay buffer to the required concentration (equivalent to 25 to 50 μg of protein/well as needed). 20 μL of 8 nM [^3H]arginine vasopressin ligand in the assay buffer, prepared just before use is added and incubated at room temperature for 60 min. shaking the plate on a mechanical shaker for the first 15 min. The incubation is stopped by rapid filtration of the plate contents followed by wash with ice-cold buffer (50 mM Tris-HCl, pH 7.4) using a cell harvester (Tomtek and Printed filtermat-B filter paper). The filter paper is thoroughly dried (7–12 min. in a microwave oven) and impregnated with MeltiLex B/H melt-on scintillation wax sheets and the radioactivity counted in a betaplate scintillation counter.

Compared with `COc1cccc(-c2ccc(C(=O)N3Cc4ccc(C(=O)N5CCN(CCN(C)C)CC5)n4Cc4ccccc43)cc2C)c1` [Example 199, {4-[2-(Dimethylamino)ethyl]-1-piperazinyl{}10-[(3′-methoxy-2-methyl[1,1′-biphenyl]-4-yl)carbonyl]-10,11-dihydro-5H-pyrrolo[2,1-c][1,4]benzodiazepin-3-yl}methanone], “{10-[(2,2′-Dimethoxy[1,1′-biphenyl]-4-yl)carbonyl]-10,11-dihydro-5H-pyrrolo[2,1-c][1,4]benzodiazepin-3-yl}(4-isopropyl-1-piperazinyl)methanone [Example 244]” is higher in “V2 % inhibition @ 100 nM” value: 6% for the first, 9% for the second.

Compared with `O=C(c1ccc(-c2cccc3ccccc23)cc1Cl)N1Cc2ccc(C(=O)N3CCC[C@H]3CN3CCCC3)n2Cc2ccccc21` [Example 261, {10-[2-Chloro-4-(1-naphthyl)benzoyl]-10,11-dihydro-5H-pyrrolo[2,1-c][1,4]benzodiazepin-3-yl}[(2S)-2-(1-pyrrolidinylmethyl)pyrrolidinyl]methanone], `COc1cc(C(=O)N2Cc3ccc(C(=O)N4CCC[C@H]4CN4CCCC4)n3Cc3ccccc32)ccc1-c1ccccc1C` [Example 266, {10-[(2-Methoxy-2′-methyl[1,1′-biphenyl]-4-yl)carbonyl]-10,11-dihydro-5H-pyrrolo[2,1-c][1,4]benzodiazepin-3-yl}[(2S)-2-(1-pyrrolidinylmethyl)pyrrolidinyl]methanone] is lower in “V2 % inhibition @ 100 nM” value: 18% for the first, −17% for the second.

Compared with `Cc1cc(C(=O)N2Cc3ccc(C(=O)NCCCN(C)C)n3Cc3ccccc32)ccc1-c1ccccc1C(F)(F)F` [Example 84, N-[3-(Dimethylamino)propyl]-10-{[2-methyl-2′-(trifluoromethyl)[1,1′-biphenyl]-4-yl]carbonyl}-10,11-dihydro-5H-pyrrolo[2,1-c][1 .4]benzodiazepine-3-carboxamide], `COc1cccc(-c2ccc(C(=O)N3Cc4ccc(C(=O)NCCC5CCCN5C)n4Cc4ccccc43)cc2C)c1` (stereo not shown) [Example 164, 10-[(3′-Methoxy-2-methyl[1′1′-biphenyl]-4-yl)carbonyl]-N-[2-(1-methyl-2-pyrrolidinyl)ethyl]-10,11-dihydro-5H-pyrrolo[2,1-c][1,4]benzodiazepine-3-carboxamide] is higher in “V2 % inhibition @ 100 nM” value: 11% for the first, 16% for the second.

With `Cc1cccc(N2CCN(C(=O)c3ccc4n3Cc3ccccc3N(C(=O)c3ccc(-c5ccccc5C(F)(F)F)c(C)c3)C4)CC2C)c1` (stereo not shown) [Example 5, [3-Methyl-4-(3-methyl-phenyl)-piperazin-1-yl]-[10-(2-methyl-2′-trifluoromethyl-[1,1′-biphenyl]-4-yl)carbonyl]-10,11-dihydro-5H-pyrrolo[2,1-c][1,4]benzodiazepin-3-yl-methanone] the “V2 % inhibition @ 100 nM” value was 3%.

First: COc1cc(-c2ccccc2C)c(Cl)cc1C(=O)N1Cc2ccc(C(=O)NCCCn3ccnc3)n2Cc2ccccc21 [Example 129, 10-[(6-Chloro-3-methoxy-2′-methyl[1,1′-biphenyl]-4-yl)carbonyl]-N-[3-(1H-imidazol-1-yl)propyl]-10,11-dihydro-5H-pyrrolo[2,1-c][1,4]benzodiazepine-3-carboxamide]
Second: COc1ccccc1-c1ccc(C(=O)N2Cc3ccc(C(=O)NCCCn4ccnc4)n3Cc3ccccc32)cc1OC [Example 132, 10-[(2,2′-Dimethoxy[1,1′-biphenyl]-4-yl)carbonyl]-N-[3-(1H-imidazol-1-yl)propyl]-10,11-dihydro-5H-pyrrolo[2,1-c][1,4]benzodiazepine-3-carboxamide]
The inhibition at 0.1 µM of the first is lower: 5% for the first, 16% for the second.

Compared with `CN(C)CCCN(C)C(=O)c1ccc2n1Cc1ccccc1N(C(=O)c1ccc(-c3cccc4ccccc34)cc1Cl)C2` [Example 109, 10-[2-Chloro-4-(1-naphthyl)benzoyl]-N-[3-(dimethylamino)propyl]-N-methyl-10,11-dihydro-5H-pyrrolo[2,1-c][1,4]benzodiazepine-3-carboxamide], `O=C(NCCCn1ccnc1)c1ccc2n1Cc1ccccc1N(C(=O)c1ccc(-c3cccc4ccccc34)cc1Cl)C2` [Example 134, 10-[2-Chloro-4-(1-naphthyl)benzoyl]-N-[3-(1H-imidazol-1-yl)propyl]-10,11-dihydro-5H-pyrrolo[2,1-c][1,4]benzodiazepine-3-carboxamide] is higher in inhibition at 0.1 µM: 14% for the first, 16% for the second.

Compared with `Cc1ccccc1-c1ccc(C(=O)N2Cc3ccc(C(=O)N4CCC(N5CCCC5)CC4)n3Cc3ccccc32)cc1C` [Example 138, {10-[(2,2′-Dimethyl[1,1′-biphenyl]-4-yl)carbonyl]-10,11-dihydro-5H-pyrrolo[2,1-c][1,4]benzodiazepin-3-yl}[4-(1-pyrrolidinyl)-1-piperidinyl]methanone], `COc1ccccc1-c1ccc(C(=O)N2Cc3ccc(C(=O)N4CCC(N5CCCCC5)CC4)n3Cc3ccccc32)cc1OC` [Example 119, {10-[(2,2′-Dimethoxy-[1,1′-biphenyl]-4-yl)carbonyl]-10,11-dihydro-5H-pyrrolo[2,1-c][1,4]benzodiazepin-3-yl}[4-(1-piperidinyl)-1-piperidinyl]methanone] is lower in inhibition at 0.1 µM: 29% for the first, 15% for the second.

Going from `COc1ccccc1-c1ccc(C(=O)N2Cc3ccc(C(=O)NCCN4CCCCC4)n3Cc3ccccc32)cc1C` [Example 149, 10-[(2′-Methoxy-2-methyl[1,1′-biphenyl]-4-yl)carbonyl]-N-[2-(1-piperidinyl)ethyl]-10,11-dihydro-5H-pyrrolo[2,1-c][1,4]benzodiazepine-3-carboxamide] to `COc1cc(C(=O)N2Cc3ccc(C(=O)NCCN4CCCCC4)n3Cc3ccccc32)ccc1-c1ccccc1C` [Example 154, 10-[(2-Methoxy-2′-methyl[1,1′-biphenyl]4-yl)carbonyl]-N-[2-(1-piperidinyl)ethyl]-10,11-dihydro-5H-pyrrolo[2,1-c][1,4]benzodiazepine-3-carboxamide], the inhibition at 0.1 µM falls from 20% to 9%.

First: COc1ccccc1-c1ccc(C(=O)N2Cc3ccc(C(=O)NCCCn4ccnc4)n3Cc3ccccc32)cc1 [Example 126, N-[3-(1H-Imidazol-1-yl)propyl]-10-[(2′-methoxy[1,1′-biphenyl]-4-yl)carbonyl]-10,11-dihydro-5H-pyrrolo[2,1-c][1,4]benzodiazepine-3-carboxamide]
Second: Cc1cc(C(=O)N2Cc3ccc(C(=O)NCCCn4ccnc4)n3Cc3ccccc32)ccc1-c1ccccc1C(F)(F)F [Example 135, N-[3-(1H-Imidazol-1-yl)propyl]-10-{[2-methyl-2′-(trifluoromethyl)[1,1′-biphenyl]-4-yl]carbonyl}-10,11-dihydro-5H-pyrrolo[2,1-c][1,4]benzodiazepine-3-carboxamide]
The inhibition at 0.1 µM of the first is higher: 18% for the first, 1% for the second.

Compared with `O=C(c1ccc2n1Cc1ccccc1N(C(=O)c1ccc(-c3cccc4ccccc34)cc1Cl)C2)N1CCC(N2CCCC2)CC1` [Example 147, {10-[2-Chloro-4-(1-naphthyl)benzoyl]-10,11-dihydro-5H-pyrrolo[2,1-c][1,4]benzodiazepin-3-yl}[4-(1-pyrrolidinyl)-1-piperidinyl]methanone], `COc1ccccc1-c1ccc(C(=O)N2Cc3ccc(C(=O)N4CCC(N5CCCC5)CC4)n3Cc3ccccc32)cc1` [Example 140, {10-[(2′-Methoxy[1,1′-biphenyl]-4-yl)carbonyl]-10,11-dihydro-5H-pyrrolo[2,1-c][1,4]benzodiazepin-3-yl}[4-(1-pyrrolidinyl)-1-piperidinyl]methanone] is higher in inhibition at 0.1 µM: 20% for the first, 29% for the second.
